Source: the NIST ThermoML archive (doi:10.1016/j.fluid.2007.04.023)

Conditions: Liquid, Vibrating tube method

CCCCCCCCCCCCC [tridecane]
Conditions | mass density [kg/m3]
313.01 K, 1023 kPa | 743.49
313.01 K, 2030 kPa | 744.27
313.01 K, 3025 kPa | 745.05
313.01 K, 4027 kPa | 745.74
313.01 K, 5014 kPa | 746.51
313.01 K, 6024 kPa | 747.18
313.01 K, 7021 kPa | 747.95
313.01 K, 8036 kPa | 748.69
313.01 K, 9019 kPa | 749.41
313.01 K, 10018 kPa | 750.14
313.01 K, 11030 kPa | 750.86
313.01 K, 12006 kPa | 751.51
313.01 K, 13017 kPa | 752.24
313.01 K, 14035 kPa | 752.95
313.01 K, 15021 kPa | 753.59
313.01 K, 16019 kPa | 754.27
313.01 K, 17019 kPa | 754.94
313.01 K, 18024 kPa | 755.61
313.01 K, 19025 kPa | 756.27
313.01 K, 20043 kPa | 756.91
313.01 K, 21011 kPa | 757.52
313.01 K, 22020 kPa | 758.16
313.01 K, 23018 kPa | 758.79
313.01 K, 24004 kPa | 759.44
313.01 K, 25036 kPa | 760.12
322.92 K, 1017 kPa | 736.15
322.92 K, 2006 kPa | 736.94
322.92 K, 3025 kPa | 737.83
322.92 K, 4021 kPa | 738.62
322.92 K, 5021 kPa | 739.42
322.92 K, 6043 kPa | 740.18
322.92 K, 7018 kPa | 740.9
322.92 K, 8022 kPa | 741.72
322.92 K, 9008 kPa | 742.44
322.92 K, 10012 kPa | 743.18
322.92 K, 11015 kPa | 743.93
322.92 K, 12006 kPa | 744.71
322.92 K, 13030 kPa | 745.38
322.92 K, 14010 kPa | 746.12
322.92 K, 15026 kPa | 746.81
322.92 K, 16024 kPa | 747.53
322.92 K, 17016 kPa | 748.22
322.92 K, 18010 kPa | 748.89
322.92 K, 19007 kPa | 749.56
322.92 K, 20023 kPa | 750.22
322.92 K, 21020 kPa | 750.92
322.92 K, 22010 kPa | 751.57
322.92 K, 23040 kPa | 752.26
322.92 K, 24006 kPa | 752.95
322.92 K, 25006 kPa | 753.6
332.78 K, 1015 kPa | 729.19
332.78 K, 2020 kPa | 730.06
332.78 K, 3022 kPa | 730.83
332.78 K, 4016 kPa | 731.63
332.78 K, 5020 kPa | 732.47
332.78 K, 6016 kPa | 733.27
332.78 K, 7006 kPa | 734.09
332.78 K, 8018 kPa | 734.9
332.78 K, 9013 kPa | 735.71
332.78 K, 10008 kPa | 736.52
332.78 K, 11016 kPa | 737.3
332.78 K, 12007 kPa | 738.05
332.78 K, 13012 kPa | 738.79
332.78 K, 14021 kPa | 739.55
332.78 K, 15011 kPa | 740.26
332.78 K, 16020 kPa | 741.03
332.78 K, 17015 kPa | 741.74
332.78 K, 18005 kPa | 742.47
332.78 K, 19017 kPa | 743.19
332.78 K, 20014 kPa | 743.89
332.78 K, 21016 kPa | 744.66
332.78 K, 22046 kPa | 745.35
332.78 K, 22994 kPa | 745.97
332.78 K, 24032 kPa | 746.67
332.78 K, 25030 kPa | 747.38
342.64 K, 1022 kPa | 722.03
342.64 K, 2014 kPa | 722.93
342.64 K, 3025 kPa | 723.84
342.64 K, 4021 kPa | 724.7
342.64 K, 5020 kPa | 725.59
342.64 K, 6020 kPa | 726.44
342.64 K, 7008 kPa | 727.27
342.64 K, 8026 kPa | 728.15
342.64 K, 9007 kPa | 728.98
342.64 K, 10010 kPa | 729.81
342.64 K, 11012 kPa | 730.63
342.64 K, 12014 kPa | 731.46
342.64 K, 13011 kPa | 732.27
342.64 K, 14008 kPa | 733.03
342.64 K, 15029 kPa | 733.84
342.64 K, 16006 kPa | 734.58
342.64 K, 17016 kPa | 735.35
342.64 K, 18019 kPa | 736.09
342.64 K, 19006 kPa | 736.85
342.64 K, 20001 kPa | 737.59
342.64 K, 21023 kPa | 738.34
342.64 K, 22008 kPa | 739.06
342.64 K, 23005 kPa | 739.79
342.64 K, 24032 kPa | 740.52
342.64 K, 25024 kPa | 741.14
352.47 K, 1013 kPa | 714.88
352.47 K, 2022 kPa | 715.88
352.47 K, 3010 kPa | 716.8
352.47 K, 4020 kPa | 717.71
352.47 K, 5019 kPa | 718.65
352.47 K, 6011 kPa | 719.55
352.47 K, 7017 kPa | 720.47
352.47 K, 8014 kPa | 721.35
352.47 K, 9022 kPa | 722.24
352.47 K, 10031 kPa | 723.11
352.47 K, 11010 kPa | 723.98
352.47 K, 12003 kPa | 724.82
352.47 K, 13024 kPa | 725.71
352.47 K, 14013 kPa | 726.54
352.47 K, 15007 kPa | 727.34
352.47 K, 16016 kPa | 728.16
352.47 K, 17007 kPa | 728.94
352.47 K, 18020 kPa | 729.77
352.47 K, 19011 kPa | 730.53
352.47 K, 20013 kPa | 731.29
352.47 K, 21032 kPa | 732.07
352.47 K, 22020 kPa | 732.84
352.47 K, 23020 kPa | 733.6
352.47 K, 24021 kPa | 734.36
352.47 K, 25024 kPa | 735.14
362.25 K, 1020 kPa | 707.72
362.25 K, 2026 kPa | 708.74
362.25 K, 3018 kPa | 709.77
362.25 K, 4006 kPa | 710.71
362.25 K, 5021 kPa | 711.73
362.25 K, 6019 kPa | 712.7
362.25 K, 7029 kPa | 713.67
362.25 K, 8017 kPa | 714.54
362.25 K, 9011 kPa | 715.51
362.25 K, 10011 kPa | 716.42
362.25 K, 11021 kPa | 717.35
362.25 K, 12018 kPa | 718.24
362.25 K, 13014 kPa | 719.11
362.25 K, 14000 kPa | 719.97
362.25 K, 15017 kPa | 720.85
362.25 K, 16026 kPa | 721.7
362.25 K, 17019 kPa | 722.52
362.25 K, 18034 kPa | 723.36
362.25 K, 19016 kPa | 724.17
362.25 K, 20004 kPa | 725
362.25 K, 21015 kPa | 725.8
362.25 K, 22022 kPa | 726.63
362.25 K, 23008 kPa | 727.42
362.25 K, 24034 kPa | 728.22
362.25 K, 25010 kPa | 729.02
